Data as given in patent US12545699B2, “Bivalent LECA inhibitors targeting biofilm formation of Pseudomonas aeruginosa” (HELMHOLTZ-ZENTRUM FÜR INFEKTIONSFORSCHUNG GMBH, priority 2019, dated 2026).

Columns and labels:
LecA [1] = target: T1, LecA (Pseudomonas aeruginosa, UniProt Q05097); test: competitive binding assay based on fluorescence polarisation (FP)
T1 construct: made in house
Method: Binding of ligands to LecA was evaluated in competitive assay based on fluorescence polarisation.

LecA [2] = target: T1, LecA; test: surface plasmon resonance (SPR) direct binding to immobilised LecA
Method: All experiments were performed on a BIACORE X100 instrument (GE Healthcare) at 25° C. and a flow rate of 10 μL min^−1. […] LecA was dissolved in 10 mM sodium acetate pH 4.5 (100 μg mL^−1) and injected over the activated chip surface on channel 2 (contact time of 540 s) until the response of ˜4000 RU was reached. Excess free amine groups were capped with an injection of 1 M ethanolamine (contact time 540 s). Bivalent compounds were dissolved in 100% DMSO and subsequently diluted to required concentrations in a running buffer (10 mM phosphate buffer pH 7.4, 2.7 mM KCl, 137 mM NaCl, 100 μM CaCl2, 0.05% Tween 20, 5% DMSO). The bivalent analytes were subjected to single-cycle kinetics analyses (contact time of 120 s and dissociation time of 120 s) consisting of injections of the analytes at 0, 10, 50, 100, and 200 nM over the immobilised-LecA. The chip surface was regenerated by 5× injections of 100 μM 4-nitrophenyl-β-D-galactose (contact time of 120 s). KD determination was performed using BIACORE X100 evaluation software (version 2.0) by applying 1:1 binding model to fit the experimental data. • [1] H. E. Gottlieb, V. Kotlyar, A. Nudelman, J. Org. Chem. 1997, 62, 7512-7515. • [2] M. Seligman, J. Biol. Chem. 1952, 195, 239-249. • [3] S. T. Xue, W. Y. He, L. L. Ma, H. Q. Wang, B. Wang, G. H. Zheng, X. Y. Ji, T. Zhang, Y. H. Li, J. D. Jiang, et al., Molecules 2013, 18, 3789-3805. • [4] Y. Li, H. Mo, G. Lian, B. Yu, Carbohydr. Res. 2012, 363, 14-22. • [5] F. Yang, F. Xie, Y. Zhang, Y. Xia, W. Liu, F. Jiang, C. Lam, Y. Qiao, D. Xie, J. Li, et al., Bioorganic Med. Chem. Lett. 2017, 27, 2166-2170. Synthesis Schemes and Results of Biophysical Assays

LecA [3] = target: T1, LecA; test: isothermal titration microcalorimetry (ITC); format: binding; conditions: Table 5, ITC, 25° C.
Method: Expression and purification of LecA as well as competitive binding by fluorescence polarization was performed as described by Joachim et al. (Org. Biomol. Chem. 2016). Microcalorimetry was performed using an ITC200 (GE Healthcare) at highest possible LecA concentration (typically 200-400 μM) in the cell and titration of ligand in the same buffer at 25° C.

[4] = IC50, Table 3, TBS/Ca2+ buffer in presence of 25% DMSO
[5] = 100 μM LecA, 0.5 mM 35, TBS/Ca2+ buffer
[6] = 110 μM LecA, 1 mM 35, TBS/Ca2+ buffer
[7] = FP IC50, Table 1, 20 μM LecA, 10 nM reporter ligand 8, TBS/Ca2+ buffer with 25% DMSO (**)

T1 sequence (Q05097 whole entry): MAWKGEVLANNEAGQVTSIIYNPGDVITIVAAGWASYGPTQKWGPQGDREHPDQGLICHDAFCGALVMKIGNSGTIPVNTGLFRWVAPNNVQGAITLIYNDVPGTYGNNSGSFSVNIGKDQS

| Structure (SMILES) | koff (LecA [2]) | IC50 (LecA [1]; [7]) | Kd (LecA [2]) | further results |
| --- | --- | --- | --- | --- |
| O=[N+]([O-])c1ccc(O[C@@H]2O[C@H](CO)[C@H](O)[C@H](O)[C@H]2O)cc1 [pNO2-Ph-β-Gal, reference compound] |  |  |  | IC50 (LecA [1]; [4]): 40.4 ± 12.9 µM |
| O=C(CCc1ccc(O[C@@H]2O[C@H](CO)[C@H](O)[C@H](O)[C@H]2O)cc1)Nc1ccc(OCCOc2ccc(NC(=O)CCc3ccc(O[C@@H]4O[C@H](CO)[C@H](O)[C@H](O)[C@H]4O)cc3)cn2)nc1 [Compound M31] | 0.00141 ± 5e-05 s⁻¹ |  |  | IC50 (LecA [1]; [4]): 4.1 ± 2.2 µM |
| O=C(/C=C/c1ccc(O[C@@H]2O[C@H](CO)[C@H](O)[C@H](O)[C@H]2O)cc1)Nc1ccc(OCCOc2ccc(NC(=O)/C=C/c3ccc(O[C@@H]4O[C@H](CO)[C@H](O)[C@H](O)[C@H]4O)cc3)cn2)nc1 [Compound M32] | 0.00165 ± 0.00012 s⁻¹ |  |  | IC50 (LecA [1]; [4]): 7.5 ± 3.7 µM |
| O=C(CCc1ccc(O[C@@H]2O[C@H](CO)[C@H](O)[C@H](O)[C@H]2O)cc1)Nc1ccc(OCCCCOc2ccc(NC(=O)CCc3ccc(O[C@@H]4O[C@H](CO)[C@H](O)[C@H](O)[C@H]4O)cc3)cn2)nc1 [Compound O31] |  |  |  | IC50 (LecA [1]; [4]): 3.2 ± 1.8 µM |
| O=C(CCc1ccc(O[C@@H]2O[C@H](CO)[C@H](O)[C@H](O)[C@H]2O)cc1)Nc1ccc(OCCCOc2ccc(NC(=O)CCc3ccc(O[C@@H]4O[C@H](CO)[C@H](O)[C@H](O)[C@H]4O)cc3)cn2)nc1 [Compound N31] |  |  |  | IC50 (LecA [1]; [4]): 2.7 ± 1.1 µM |
| O=C(/C=C/c1ccc(O[C@@H]2O[C@H](CO)[C@H](O)[C@H](O)[C@H]2O)cc1)Nc1ccc(OCCCOc2ccc(NC(=O)/C=C/c3ccc(O[C@@H]4O[C@H](CO)[C@H](O)[C@H](O)[C@H]4O)cc3)cc2)cc1 [Compound J18] | 0.00251 ± 0.00022 s⁻¹ |  |  |  |
| O=C(/C=C/c1ccc(O[C@@H]2O[C@H](CO)[C@H](O)[C@H](O)[C@H]2O)cc1)Nc1ccc(OCCCOc2ccc(NC(=O)/C=C/c3ccc(O[C@@H]4O[C@H](CO)[C@H](O)[C@H](O)[C@H]4O)cc3)cn2)nc1 [Compound N32] |  |  |  | IC50 (LecA [1]; [4]): 4.3 ± 2 µM |
| N.N.O=C(CCc1ccc(O[C@@H]2OC(CO)[C@H](O)C(O)C2O)cc1)Nc1ccc(CCc2ccc(NC(=O)CCc3ccc(O[C@@H]4OC(CO)[C@H](O)C(O)C4O)cc3)cc2S(=O)(=O)O)c(S(=O)(=O)O)c1 (stereo partly drawn) [Compound 35] |  |  |  | Kd (LecA [3]; [5]): 0.081 µM; Kd (LecA [3]; [6]): 0.146 µM; N (ITC stoichiometry) (LecA [3]; [5]): 0.55; ΔH (LecA [3]; [5]): -19.2 kcal/mol; ΔS (LecA [3]; [5]): −31.8 cal/mol/deg; N (ITC stoichiometry) (LecA [3]; [6]): 0.54; ΔH (LecA [3]; [6]): -19.5 kcal/mol; ΔS (LecA [3]; [6]): −34.3 cal/mol/deg; IC50 (LecA [1]; [4]): 4 ± 2.4 µM |
| O=C(CCc1ccc(O[C@@H]2O[C@H](CO)[C@H](O)[C@H](O)[C@H]2O)cc1)Nc1ccc(OCCCOc2ccc(NC(=O)CCc3ccc(O[C@@H]4O[C@H](CO)[C@H](O)[C@H](O)[C@H]4O)cc3)cc2)cc1 [Compound J30] | 0.00345 ± 0.00013 s⁻¹ |  |  |  |
| O=C(NN=Cc1ccc(OCCCCOc2ccc(C=NNC(=O)c3ccc(OC4OC(CO)C(O)C(O)C4O)cc3)cc2)cc1)c1ccc(OC2OC(CO)C(O)C(O)C2O)cc1 (stereo not drawn) [Compound E6p] |  | 4.9 ± 1.4 µM | 0.094 ± 0.0289 µM |  |
| O=C(NN=Cc1ccc(OCOc2ccc(C=NNC(=O)c3cccc(OC4OC(CO)C(O)C(O)C4O)c3)cc2)cc1)c1cccc(OC2OC(CO)C(O)C(O)C2O)c1 (stereo not drawn) [Compound B6m] |  | 3.1 ± 2 µM | 0.0143 ± 0.006 µM |  |
| O=C(NN=Cc1ccc(Oc2ccc(C=NNC(=O)c3cccc(OC4OC(CO)C(O)C(O)C4O)c3)cc2)cc1)c1cccc(OC2OC(CO)C(O)C(O)C2O)c1 (stereo not drawn) [Compound A6m] |  | 4.1 ± 3 µM | 0.0166 ± 0.002 µM |  |
| O=C(NN=Cc1ccc(OCOc2ccc(C=NNC(=O)c3ccc(OC4OC(CO)C(O)C(O)C4O)cc3)cc2)cc1)c1ccc(OC2OC(CO)C(O)C(O)C2O)cc1 (stereo not drawn) [Compound B6p] |  | 3.7 ± 1.8 µM | 0.0305 ± 0.028 µM |  |
| O=C(/C=C/c1ccc(O[C@@H]2O[C@H](CO)[C@H](O)[C@H](O)[C@H]2O)cc1)Nc1ccc(OCOc2ccc(NC(=O)/C=C/c3ccc(O[C@@H]4O[C@H](CO)[C@H](O)[C@H](O)[C@H]4O)cc3)cc2)cc1 [Compound H18] | 0.00379 ± 0.00089 s⁻¹ |  |  |  |
| O=C(NCc1cn(CCOCCOCCOCCNC(=S)Nc2ccc3c(c2)C(=O)OC32c3ccc(O)cc3Oc3cc(O)ccc32)nn1)c1ccc(C(Oc2ccc(/C=N/NC(=O)c3ccc(O[C@@H]4OC(CO)[C@H](O)C(O)C4O)cc3)cc2)Oc2ccc(/C=N/NC(=O)c3ccc(O[C@@H]4OC(CO)[C@H](O)C(O)C4O)cc3)cc2)cc1 (stereo partly drawn) [Compound 13] | 0.00593 ± 0.00051 s⁻¹ |  | 0.0372 ± 0.0029 µM | kon (LecA [2]; Table 2, SPR, three independent experiments): 160 ± 19 ×10^3/Ms |
| O=C(/C=C/c1ccc(O[C@@H]2O[C@H](CO)[C@H](O)[C@H](O)[C@H]2O)cc1)Nc1ccc(OCCOc2ccc(NC(=O)/C=C/c3ccc(O[C@@H]4O[C@H](CO)[C@H](O)[C@H](O)[C@H]4O)cc3)cc2)cc1 [Compound I18] | 0.00249 ± 0.00028 s⁻¹ |  |  |  |
| O=C(CCc1ccc(O[C@@H]2O[C@H](CO)[C@H](O)[C@H](O)[C@H]2O)cc1)Nc1ccc(Oc2ccc(NC(=O)CCc3ccc(O[C@@H]4O[C@H](CO)[C@H](O)[C@H](O)[C@H]4O)cc3)cc2)cc1 [Compound G30] | 0.00349 ± 8e-05 s⁻¹ |  |  |  |
| O=C(CCc1ccc(O[C@@H]2O[C@H](CO)[C@H](O)[C@H](O)[C@H]2O)cc1)Nc1ccc(OCCCCOc2ccc(NC(=O)CCc3ccc(O[C@@H]4O[C@H](CO)[C@H](O)[C@H](O)[C@H]4O)cc3)cc2)cc1 [Compound K30] | 0.00366 ± 0.00042 s⁻¹ |  |  |  |
| NNC(=O)c1ccc(O[C@@H]2OC(CO)[C@H](O)C(O)C2O)cc1 (stereo partly drawn) [reference compound] |  | 30.3 µM |  | IC50 (LecA [1]; FP IC50, Table 1, 20 μM LecA, 10 nM reporter ligand 8, TBS/Ca2+ buffer with 4% DMSO (*)): 22.6 ± 8.7 µM |
| O=C(CCc1ccc(O[C@@H]2O[C@H](CO)[C@H](O)[C@H](O)[C@H]2O)cc1)Nc1ccc(OCCOc2ccc(NC(=O)CCc3ccc(O[C@@H]4O[C@H](CO)[C@H](O)[C@H](O)[C@H]4O)cc3)cc2)cc1 [Compound I30] | 0.00284 ± 6e-05 s⁻¹ |  |  |  |
| O=C(NN=Cc1ccc(OCCCOc2ccc(C=NNC(=O)c3ccc(OC4OC(CO)C(O)C(O)C4O)cc3)cc2)cc1)c1ccc(OC2OC(CO)C(O)C(O)C2O)cc1 (stereo not drawn) [Compound D6p] |  | 3.6 ± 1.7 µM | 0.05 ± 0.0194 µM |  |
| O=C(CCc1ccc(O[C@@H]2O[C@H](CO)[C@H](O)[C@H](O)[C@H]2O)cc1)Nc1ccc(OCOc2ccc(NC(=O)CCc3ccc(O[C@@H]4O[C@H](CO)[C@H](O)[C@H](O)[C@H]4O)cc3)cc2)cc1 [Compound H30] | 0.00462 ± 0.0002 s⁻¹ |  |  |  |
| O=C(NN=Cc1ccc(OCCOc2ccc(C=NNC(=O)c3ccc(OC4OC(CO)C(O)C(O)C4O)cc3)cc2)cc1)c1ccc(OC2OC(CO)C(O)C(O)C2O)cc1 (stereo not drawn) [Compound C6p] |  | 3.8 ± 1.6 µM | 0.0417 ± 0.0239 µM |  |
| O=C(NN=Cc1ccc(OCCCOc2ccc(C=NNC(=O)c3cccc(OC4OC(CO)C(O)C(O)C4O)c3)cc2)cc1)c1cccc(OC2OC(CO)C(O)C(O)C2O)c1 (stereo not drawn) [Compound D6m] |  |  | 0.0659 ± 0.0062 µM |  |
| O=C(/C=C/c1ccc(O[C@@H]2O[C@H](CO)[C@H](O)[C@H](O)[C@H]2O)cc1)Nc1ccc(Oc2ccc(NC(=O)/C=C/c3ccc(O[C@@H]4O[C@H](CO)[C@H](O)[C@H](O)[C@H]4O)cc3)cc2)cc1 [Compound G18] | 0.00596 ± 0.00206 s⁻¹ |  |  |  |
| O=C(NN=Cc1ccc(Oc2ccc(C=NNC(=O)c3ccc(OC4OC(CO)C(O)C(O)C4O)cc3)cc2)cc1)c1ccc(OC2OC(CO)C(O)C(O)C2O)cc1 (stereo not drawn) [Compound A6p] |  | 4.3 ± 2.3 µM | 0.0217 ± 0.0076 µM |  |
| O=C(NN=Cc1ccc(OCCCCOc2ccc(C=NNC(=O)c3cccc(OC4OC(CO)C(O)C(O)C4O)c3)cc2)cc1)c1cccc(OC2OC(CO)C(O)C(O)C2O)c1 (stereo not drawn) [Compound E6m] |  | 6.3 ± 6.4 µM | 0.0257 ± 0.0192 µM |  |
| O=C(NN=Cc1ccc(OCCOc2ccc(C=NNC(=O)c3cccc(OC4OC(CO)C(O)C(O)C4O)c3)cc2)cc1)c1cccc(OC2OC(CO)C(O)C(O)C2O)c1 (stereo not drawn) [Compound C6m] |  | 2 ± 1.9 µM | 0.0149 ± 0.0119 µM |  |
| O=C(/C=C/c1ccc(O[C@@H]2O[C@H](CO)[C@H](O)[C@H](O)[C@H]2O)cc1)Nc1ccc(OCCCCOc2ccc(NC(=O)/C=C/c3ccc(O[C@@H]4O[C@H](CO)[C@H](O)[C@H](O)[C@H]4O)cc3)cc2)cc1 [Compound K18] | 0.00388 ± 0.00043 s⁻¹ |  |  |  |
